Data on 20 compounds can be found in patent US20260125378A2, “Heterocyclic Compounds” (BeOne Medicines I GmbH, priority 2023, published 2026).

Assay [1] addresses T1, Full length DGKζ (in-house protein M1-V929) (Homo sapiens, UniProt Q13574).
T1 construct: His (N); TEV site (N); made in house; host or cells: Sf9 insect cells (Bac-to-Bac baculovirus)
In words: Biochemical DGK IC50 assay (ADP-Glo, lipid micelle substrate), DGKζ. The note with it: 1 hour preincubation, 1 hour reaction, room temperature. The method, then: (§1) Enzymatic reactions of DGKζ, DGKα and DGKδ were performed using ADP-Glo assay with lipid micelle substrate. […] Full length DGKα (D21-10BG, SignalChem) and full length DGKδ (D23-10G, SignalChem) were purchased. Lipid micelle was prepared by dissolving DAG (Sigma, 317505-10 MG) and PS (Sigma, P7769-100 MG) with chloroform which was furtherly removed by rotary evaporation. The obtained residue was resuspended in buffer containing 25 mM HEPES pH 7.0, 0.5 mM EDTA and 160 mM Octyl β-D glucopyranoside by vigorous mixing and ultrasonic (IID, Scientz).
(§2) The inhibition activities testing for the compound disclosed herein were carried out at room temperature in assay buffer containing 50 mM HEPES, 10 mM MgCl2, 0.01% BSA, 0.1 mM Na3VO4, 0.005% Tween-20 and 0.01 mM CaCl2). Compounds in DMSO were dispensed into wells of a black 384 well plate (Corning 4514) using D300e digital dispenser (Tecan). […] 3 μL 2× enzyme solution was added to wells. […] After 1 hour reaction, 5 μL ADP-Glo reagent (Promga V9101) was added and incubated for 40 minutes. 10 μL Kinase Detection reagent was added and incubated for 30 minutes. Luminescence was measured on a microplate reader (PHERAstar FSX, BMG labtech). The IC50S are calculated based on inhibition of enzyme activity in the presence of increasing concentrations of compounds.
Human His-TEV-DGK-zeta-pFastBac1 and human baculovirus samples was generated using the Bac- to -Bac baculovirus expression system (Invitrogen) according to the manufacturer's protocol. The DNA used for expression of DGK-zeta, have SEQ ID Nos: 1. Baculovirus amplification was achieved using infected SF9 cells at 1:2000 virus/cells ratios, and grown for 96 hours at 27° C. post-transfected.
The expression scaled up for each protein was carried out in the […] from CORNING. 4 L of 3×10^6 cells/mL Sf9 cells (Expression System, Invitrogen) grown in SF900™ II SFM insect medium (Expression System) was infected with virus stock at 1:200 virus/cells ratio, and grown for 48 hours at 27° C. post-transfection. The infected cell culture was harvested by centrifugation at 6000 rpm for 15 min 4° C. in a SORVALL LYNX6000 centrifuge. The cell pellets were stored at −80° C.
Full length human DGKζ produced as described above, was purified from Sf9 baculovirus-infected insect cell paste. The cells were lysed using sonication method, and the lysates were clarified by centrifugation.

Assay [2] deals with T2, Full length DGKα (D21-10BG, SignalChem) (Homo sapiens, UniProt P23743).
T2 construct: Full length DGKα (D21-10BG, SignalChem); purchased SignalChem D21-10BG
Put plainly: Biochemical DGK IC50 assay (ADP-Glo, lipid micelle substrate), DGKα. The note with it: 1 hour preincubation, 1 hour reaction, room temperature. Here is the method:
as §1, §2

T2 sequence (P23743 whole entry): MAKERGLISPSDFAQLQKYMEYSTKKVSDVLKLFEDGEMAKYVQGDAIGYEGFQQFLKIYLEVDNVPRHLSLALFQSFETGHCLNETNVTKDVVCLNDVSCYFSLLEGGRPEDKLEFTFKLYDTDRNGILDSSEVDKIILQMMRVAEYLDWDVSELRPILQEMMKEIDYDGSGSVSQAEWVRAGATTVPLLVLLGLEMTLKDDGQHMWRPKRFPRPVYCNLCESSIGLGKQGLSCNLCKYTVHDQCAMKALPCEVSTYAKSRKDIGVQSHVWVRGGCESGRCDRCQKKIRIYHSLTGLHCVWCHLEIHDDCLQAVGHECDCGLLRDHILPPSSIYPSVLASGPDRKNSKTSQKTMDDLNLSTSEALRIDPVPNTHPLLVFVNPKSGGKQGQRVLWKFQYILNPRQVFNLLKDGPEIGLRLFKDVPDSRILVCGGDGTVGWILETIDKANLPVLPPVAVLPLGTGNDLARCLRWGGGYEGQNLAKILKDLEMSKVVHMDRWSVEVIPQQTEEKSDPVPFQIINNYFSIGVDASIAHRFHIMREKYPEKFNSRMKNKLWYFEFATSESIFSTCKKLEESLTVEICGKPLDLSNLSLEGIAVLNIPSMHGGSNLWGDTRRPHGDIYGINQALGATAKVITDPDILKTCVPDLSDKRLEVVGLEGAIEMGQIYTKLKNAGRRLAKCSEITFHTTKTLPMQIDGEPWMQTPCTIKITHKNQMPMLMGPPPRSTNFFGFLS
T1 sequence (Q13574 1-929 isoform Q13574-4): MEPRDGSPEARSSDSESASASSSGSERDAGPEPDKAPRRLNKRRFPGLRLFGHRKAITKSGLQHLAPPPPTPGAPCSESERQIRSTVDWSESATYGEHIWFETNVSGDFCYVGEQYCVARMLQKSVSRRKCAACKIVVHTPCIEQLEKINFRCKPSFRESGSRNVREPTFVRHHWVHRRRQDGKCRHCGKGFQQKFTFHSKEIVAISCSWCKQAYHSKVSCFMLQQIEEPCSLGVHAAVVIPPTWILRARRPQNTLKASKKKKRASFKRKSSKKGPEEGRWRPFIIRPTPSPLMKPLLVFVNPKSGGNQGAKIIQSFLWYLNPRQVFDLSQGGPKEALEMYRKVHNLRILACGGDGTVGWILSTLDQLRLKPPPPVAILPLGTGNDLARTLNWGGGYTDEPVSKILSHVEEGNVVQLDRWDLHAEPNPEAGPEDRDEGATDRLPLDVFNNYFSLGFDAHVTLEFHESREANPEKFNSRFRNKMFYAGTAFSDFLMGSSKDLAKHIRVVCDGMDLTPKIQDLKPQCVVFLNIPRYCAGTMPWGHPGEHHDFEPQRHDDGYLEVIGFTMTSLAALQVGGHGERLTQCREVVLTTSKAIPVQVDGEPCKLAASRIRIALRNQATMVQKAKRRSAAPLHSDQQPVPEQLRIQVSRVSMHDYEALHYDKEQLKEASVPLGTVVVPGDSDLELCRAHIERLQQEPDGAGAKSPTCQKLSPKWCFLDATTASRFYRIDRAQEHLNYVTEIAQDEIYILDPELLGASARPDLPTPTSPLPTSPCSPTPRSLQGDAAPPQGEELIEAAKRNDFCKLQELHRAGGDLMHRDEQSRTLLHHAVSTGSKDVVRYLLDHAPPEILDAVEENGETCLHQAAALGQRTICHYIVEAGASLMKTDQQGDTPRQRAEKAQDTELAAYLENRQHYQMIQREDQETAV

`CC(c1ccc(F)cc1C(F)F)N1C[C@H](C)N(c2nc(=O)n(C)c3c2nc(CC#N)n3C)C[C@H]1C` (stereo partly drawn) [Compound A30, 2-(6-((2S,5R)-4-(1-(2-(difluoromethyl)-4-fluorophenyl)ethyl)-2,5-dimethylpiperazin-1-yl)-3,9-dimethyl-2-oxo-3,9-dihydro-2H-purin-8-yl)acetonitrile]: the IC50 came to 14 nM in assay [1] and 44.3 µM in assay [2].
In the same order, the values of `CC[C@H]1CN(C(C)c2ccc3c(c2)OC(C)(C)CO3)[C@H](CC)CN1c1nc(=O)n(C)c2c1nc(CC#N)n2C` (single isomer, unassigned) [Compound A64b] are 14 nM and 4.75 µM.
For the compound `CC(c1ccc2nccnc2c1)N1C[C@H](C)N(c2cc(=O)n(C)c3sc(CC#N)nc23)C[C@H]1C` (single isomer, unassigned) [Compound A194b], the IC50 came to 873 nM in assay [1] and 7.02 µM in assay [2].
As to `CC(c1ccc2c(c1)OC(C)(C)CO2)N1C[C@H](C)N(c2nc(=O)n(C)c3c2nc(CC#N)n3CC(F)F)C[C@H]1C` (stereo partly drawn) [Compound A87, 2-(9-(2,2-difluoroethyl)-6-((2S,5R)-4-(1-(3,3-dimethyl-2,3-dihydrobenzo[b][1,4]dioxin-6-yl)ethyl)-2,5-dimethylpiperazin-1-yl)-3-methyl-2-oxo-3,9-dihydro-2H-purin-8-yl)acetonitrile], the figures for the IC50 in assay [1] and in assay [2] were 2 nM and 21.9 µM, respectively.
For `CCn1c(CC#N)nc2c(N3C[C@@H](C)N(C(C)c4cccc(N5CC6(COC6)C5)c4)C[C@@H]3C)nc(=O)n(C)c21` (stereo partly drawn) [Compound A140, 2-(6-((2S,5R)-4-(1-(3-(2-oxa-6-azaspiro[3.3]heptan-6-yl)phenyl)ethyl)-2,5-dimethylpiperazin-1-yl)-9-ethyl-3-methyl-2-oxo-3,9-dihydro-2H-purin-8-yl)acetonitrile], the values for the concentration for half-maximal inhibition (IC50) in assay [1] and in assay [2] were 594 nM and more than 150 µM, respectively.
With `CCn1c(CC#N)nc2c(N3C[C@@H](C)N(C(C)c4ccc5c(c4)OC(C)(C)CC5)C[C@@H]3C)nc(=O)n(C)c21` (single isomer, unassigned) [Compound A94b], the IC50 in assay [1] was 532 nM; in assay [2], more than 150 µM.
For the compound `CCn1c(CC#N)nc2c(N3C[C@@H](C)N(C(C)c4ccc5occ(C)c(=O)c5c4)C[C@@H]3C)nc(=O)n(C)c21` (stereo partly drawn) [Compound A91, 2-(6-((2S,5R)-2,5-dimethyl-4-(1-(3-methyl-4-oxo-4H-chromen-6-yl)ethyl)piperazin-1-yl)-9-ethyl-3-methyl-2-oxo-3,9-dihydro-2H-purin-8-yl)acetonitrile], the IC50 in assay [1] was 20 nM; in assay [2], more than 150 µM.
Regarding `CC(c1ccc2nccnc2c1)N1C[C@H](C)N(c2cc(=O)n(C)c3c2nc(CC#N)n3C)C[C@H]1C` (single isomer, unassigned) [Compound A1a], the IC50 is 9 nM in assay [1] and 14.9 µM in assay [2].
As for `CCn1c(CC#N)nc2c(N3C[C@@H](C)N(C(C)c4ccnc(C(=O)NC)c4)C[C@@H]3C)nc(=O)n(C)c21` (stereo partly drawn) [Compound A130, 4-(1-((2R,5S)-4-(8-(cyanomethyl)-9-ethyl-3-methyl-2-oxo-3,9-dihydro-2H-purin-6-yl)-2,5-dimethylpiperazin-1-yl)ethyl)-N-methylpicolinamide], the IC50 in assay [1] was 3900 nM; in assay [2] it was more than 150 µM.
Regarding `CC(c1ccc(C(F)(F)F)cn1)N1C[C@H](C)N(c2nc(=O)n(C)c3c2nc(CC#N)n3C)C[C@H]1C` (single isomer, unassigned) [Compound A148b], the values for the IC50 in assay [1] and in assay [2] were 176 nM and 0.666 µM, respectively.
In the same order, the values of `CC(c1ccc2c(n1)OC(C)(C)CO2)N1C[C@H](C)N(c2nc(=O)n(C)c3c2nc(CC#N)n3CC(F)F)C[C@H]1C` (stereo partly drawn) [Compound A165, 2-(9-(2,2-difluoroethyl)-6-((2S,5R)-4-(1-(3,3-dimethyl-2,3-dihydro-[1,4]dioxino[2,3-b]pyridin-6-yl)ethyl)-2,5-dimethylpiperazin-1-yl)-3-methyl-2-oxo-3,9-dihydro-2H-purin-8-yl)acetonitrile] are 69 nM and more than 150 µM.
With `COC(C)c1cc(F)ccc1C(C)N1C[C@H](C)N(c2nc(=O)n(C)c3c2nc(CC#N)n3C)C[C@H]1C` (stereo partly drawn) [Compound A28, 2-(6-((2S,5R)-4-(1-(4-fluoro-2-(1-methoxyethyl)phenyl)ethyl)-2,5-dimethylpiperazin-1-yl)-3,9-dimethyl-2-oxo-3,9-dihydro-2H-purin-8-yl)acetonitrile], the IC50 in assay [1] worked out at 3 nM; in assay [2] it was 96.9 µM.
For the compound `CCn1c(CC#N)nc2c(N3C[C@@H](C)N(C(C)c4ccnc5c4OCCC5(F)F)C[C@@H]3C)nc(=O)n(C)c21` (single isomer, unassigned) [Compound A103a], the IC50 in assay [1] was 524 nM; in assay [2], more than 150 µM.
On to `CCn1c(CC#N)nc2c(N3C[C@@H](C)N(C(C)c4ccc5c(c4)OC4(CCC4)O5)C[C@@H]3C)nc(=O)n(C)c21` (single isomer, unassigned) [Compound A169b], for which the results for the IC50 in assay [1] and in assay [2] were 455 nM and 78.2 µM, respectively.
As for `CC[C@@H]1CN(c2nc(=O)n(C)c3c2nc(CC#N)n3C)[C@@H](C)CN1C(C)c1ccc2c(n1)OC(C)(C)CO2` (single isomer, unassigned) [Compound A159b], the IC50 in assay [1] is 691 nM; in assay [2] it was 63.4 µM.
In the case of `CCn1c(CC#N)nc2c(N3C[C@@H](C)N(C(C)c4ccc5c(c4)OC(F)(F)CO5)C[C@@H]3C)nc(=O)n(C)c21` (single isomer, unassigned) [Compound A80a], the IC50 came to 7 nM in assay [1] and 65.6 µM in assay [2].
As to `CCn1c(CC#N)nc2c(N3C[C@@H](C)N(C(C)c4cccc(C(C)(C)O)c4)C[C@@H]3C)nc(=O)n(C)c21` (stereo partly drawn) [Compound A111, 2-(9-ethyl-6-((2S,5R)-4-(1-(3-(2-hydroxypropan-2-yl)phenyl)ethyl)-2,5-dimethylpiperazin-1-yl)-3-methyl-2-oxo-3,9-dihydro-2H-purin-8-yl)acetonitrile], the IC50 was 771 nM in assay [1] and more than 150 µM in assay [2].
For `CC(c1ccc2nccnc2c1)N1C[C@H](C)N(c2cc(=O)n(C)c3c2nc(CC#N)n3C)C[C@H]1C` (stereo partly drawn) [Compound A1, 2-(7-((2S,5R)-2,5-dimethyl-4-(1-(quinoxalin-6-yl)ethyl)piperazin-1-yl)-3,4-dimethyl-5-oxo-4,5-dihydro-3H-imidazo[4,5-b]pyridin-2-yl)acetonitrile], the IC50 in assay [1] came out at 19 nM; in assay [2], 20.2 µM.
Turning to `CCn1c(CC#N)nc2c(N3C[C@@H](C)N(C(C)c4ccc(=O)n(C)c4)C[C@@H]3C)nc(=O)n(C)c21` (stereo partly drawn) [Compound A106, 2-(6-((2S,5R)-2,5-dimethyl-4-(1-(1-methyl-6-oxo-1,6-dihydropyridin-3-yl)ethyl)piperazin-1-yl)-9-ethyl-3-methyl-2-oxo-3,9-dihydro-2H-purin-8-yl)acetonitrile], the IC50 in assay [1] was more than 10000 nM; in assay [2] it was more than 150 µM.
On to `CC(c1ccc2c(c1)OC(F)(F)O2)N1C[C@H](C)N(c2nc(=O)n(C)c3c2nc(CC#N)n3C)C[C@H]1C` (stereo partly drawn) [Compound A167, 2-(6-((2S,5R)-4-(1-(2,2-difluorobenzo[d][1,3]dioxol-5-yl)ethyl)-2,5-dimethylpiperazin-1-yl)-3,9-dimethvl-2-oxo-3,9-dihydro-2H-purin-8-yl)acetonitrile], for which the results for the IC50 in assay [1] and in assay [2] were 90 nM and 19 µM, respectively.
